# Experimental data published in patent publication US20090325952A1, “PYRAZOLO[3,4-B]PYRIDINE COMPOUNDS, AND THEIR USE AS PDE4 INHIBITORS” (Glaxo Group Limited, priority 2006, published 2009).
# Target: T1, PDE6 (from bovine retina) (Bos taurus, UniProt P11541+P23439)
# T1 construct: PDE6 can be purified from bovine retina; from tissue; host or cells: bovine retina
# T1 sequence (P11541 2-856 limits assumed): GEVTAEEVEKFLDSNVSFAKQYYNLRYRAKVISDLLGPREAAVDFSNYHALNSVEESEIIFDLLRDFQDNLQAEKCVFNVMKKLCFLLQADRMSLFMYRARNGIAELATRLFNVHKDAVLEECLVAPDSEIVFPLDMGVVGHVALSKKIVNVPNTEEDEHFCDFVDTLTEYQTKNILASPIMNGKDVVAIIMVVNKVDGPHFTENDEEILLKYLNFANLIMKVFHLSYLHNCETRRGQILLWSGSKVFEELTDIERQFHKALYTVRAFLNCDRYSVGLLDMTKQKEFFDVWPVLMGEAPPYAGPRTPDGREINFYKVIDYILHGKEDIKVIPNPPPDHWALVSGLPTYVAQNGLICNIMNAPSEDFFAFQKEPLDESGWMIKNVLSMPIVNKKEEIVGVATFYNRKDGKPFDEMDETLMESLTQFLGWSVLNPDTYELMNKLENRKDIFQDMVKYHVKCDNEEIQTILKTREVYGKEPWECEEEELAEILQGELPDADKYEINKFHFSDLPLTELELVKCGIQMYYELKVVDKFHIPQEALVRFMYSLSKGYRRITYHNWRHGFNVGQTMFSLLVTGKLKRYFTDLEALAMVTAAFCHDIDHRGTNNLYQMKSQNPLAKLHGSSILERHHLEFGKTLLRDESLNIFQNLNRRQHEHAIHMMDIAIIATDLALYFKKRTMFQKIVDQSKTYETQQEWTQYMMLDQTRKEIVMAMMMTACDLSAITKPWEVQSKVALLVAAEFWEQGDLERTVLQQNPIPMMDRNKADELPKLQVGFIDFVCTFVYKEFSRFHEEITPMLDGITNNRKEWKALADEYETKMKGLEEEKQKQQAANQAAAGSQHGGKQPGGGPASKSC
# T1 sequence (P23439 2-850 limits assumed): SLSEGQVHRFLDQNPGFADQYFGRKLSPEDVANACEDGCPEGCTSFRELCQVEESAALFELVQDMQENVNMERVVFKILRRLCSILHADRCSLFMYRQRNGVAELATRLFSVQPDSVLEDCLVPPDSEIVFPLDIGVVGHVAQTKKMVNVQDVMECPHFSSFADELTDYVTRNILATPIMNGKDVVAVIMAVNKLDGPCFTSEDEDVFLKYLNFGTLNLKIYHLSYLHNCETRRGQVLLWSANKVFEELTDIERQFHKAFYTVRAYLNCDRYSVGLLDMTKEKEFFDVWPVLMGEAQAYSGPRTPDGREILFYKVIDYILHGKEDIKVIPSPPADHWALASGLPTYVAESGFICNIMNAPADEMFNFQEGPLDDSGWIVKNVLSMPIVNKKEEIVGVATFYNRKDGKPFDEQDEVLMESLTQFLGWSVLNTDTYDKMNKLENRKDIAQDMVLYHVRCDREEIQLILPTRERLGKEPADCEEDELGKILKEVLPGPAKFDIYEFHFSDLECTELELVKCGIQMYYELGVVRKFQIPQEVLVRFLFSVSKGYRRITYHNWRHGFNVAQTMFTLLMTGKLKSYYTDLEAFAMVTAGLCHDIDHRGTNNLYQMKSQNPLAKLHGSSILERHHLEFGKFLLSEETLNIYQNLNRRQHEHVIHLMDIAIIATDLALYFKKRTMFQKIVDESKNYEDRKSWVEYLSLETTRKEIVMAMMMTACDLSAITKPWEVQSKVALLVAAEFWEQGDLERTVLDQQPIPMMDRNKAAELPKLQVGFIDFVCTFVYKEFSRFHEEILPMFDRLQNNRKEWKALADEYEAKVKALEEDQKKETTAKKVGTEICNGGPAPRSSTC
# Assay: Inhibition of PDE6 activity (FP or SPA assays)
# Format: biochemical
# Conditions: selectivity PDE4B over PDE6
# Source text: PDE6 can be purified from bovine retina as described by: P. Catty and P. Deterre, “Activation and solubilization of the retinal cGMP-specific phosphodiesterase by limited proteolysis”, Eur. J. Biochem., 1991, 199, 263-269; A. Tar et al. “Purification of bovine retinal cGMP phosphodiesterase”, Methods in Enzymology, 1994, 238, 3-12; and/or D. Srivastava et al. “Effects of magnesium on cyclic GMP hydrolysis by the bovine retinal rod cyclic GMP phosphodiesterase”, Biochem. J, 1995, 308, 653-658.
# The ability of compounds to inhibit catalytic activity at PDE4B or 4D (human recombinant), PDE3 (from bovine aorta), PDE5 (human recombinant) or PDE6 (from bovine retina) can optionally be determined by Scintillation Proximity Assay (SPA) in a 96-well format.
# Test compounds (as a solution in DMSO, suitably about 2 microlitre (ul) volume of DMSO solution) are preincubated at ambient temperature (room temperature, e.g. 19-23° C.) in Wallac Isoplates (code 1450-514) with PDE enzyme in 50 mM Tris-HCl buffer pH 7.5, 8.3 mM MgCl2, 1.7 mM EGTA, 0.05% (w/v) bovine serum albumin for 10-30 minutes (usually 30 minutes). The enzyme concentration is adjusted so that no more than 20% hydrolysis of the substrate defined below occurs in control wells without compound, during the incubation. […] Bound radioactive product is measured using a WALLAC TRILUX 1450 Microbeta scintillation counter. […]
smiles,measurement,value
"CCc1nc2c(cnn2CC)c(NC2CCOCC2)c1CNC(=O)c1ccc(NC(=O)CCCCCCCN(C)CCO)cc1 [Example 1B, N-{[1,6-diethyl-4-(tetrahydro-2H-pyran-4-ylamino)-1H-pyrazolo[3,4-b]pyridin-5-yl]methyl}-4-({8-[(2-hydroxyethyl)(methyl)amino]octanoyl}amino)benzamide]",PDE4B inhibition compared with PDE6 inhibition (pIC50 values),"inhibit PDE4B more strongly than they inhibit PDE3, PDE5 and PDE6"
